Laboratory results taken from patent US11395489B2, “Microbiocidal picolinamide derivatives” (Syngenta Participations AG, priority 2017, dated 2022).

Tests used:
[1] = test system: Botryotinia fuckeliana (Botrytis cinerea); experiment: Botryotinia fuckeliana (Botrytis cinerea) / liquid culture (Gray Mould); format: cell-based; conditions: 72 h, 200 ppm in the formulation, inhibition of growth determined photometrically 3-4 days after application, read-out: disease control
Method: (§1) Botryotinia fuckeliana (Botrytis cinerea)/Liquid Culture (Gray Mould) Conidia of the fungus from cryogenic storage are directly mixed into nutrient broth (Vogels broth). After placing a (DMSO) solution of test compound into a microtiter plate (96-well format), the nutrient broth containing the fungal spores is added. The test plates are incubated at 24° C. and the inhibition of growth is determined photometrically 3-4 days after application.

[2] = test system: Glomerella lacenarium (Colletotrichum lacenarium); experiment: Glomerella lacenarium (Colletotrichum lacenarium) / liquid culture (Anthracnose); format: cell-based; conditions: 200 ppm in the formulation, inhibition of growth measured photometrically 3-4 days after application, read-out: disease control
Method: as §1, with “Glomerella lacenarium (Colletotrichum lacenarium)/Liquid” for “Botryotinia fuckeliana (Botrytis cinerea)/Liquid”, “(Anthracnose)” for “(Gray Mould)”, “(PDB potato dextrose” for “(Vogels”, “measured” for “determined”

[3] = test system: Magnaporthe risea (Pyricularia Oryzae); experiment: whole plant or invertebrate; format: in vivo; conditions: foliar, read-out: disease control
[4] = test system: Monocraphella nivalis (Microdochium nivale); experiment: Monocraphella nivalis (Microdochium nivale) / liquid culture (Foot Rot Cereals); format: cell-based; conditions: 96 h, 200 ppm in the formulation, inhibition of growth determined photometrically 4-5 days after application, read-out: disease control
Method: as §1, with “Monocraphella nivalis (Microdochium nivale)/Liquid” for “Botryotinia fuckeliana (Botrytis cinerea)/Liquid”, “(Foot Rot Cereals)” for “(Gray Mould)”, “(PDB potato dextrose” for “(Vogels”, “4-5” for “3-4”

[5] = test system: Mycosphaerella arachidis (Cercospora arachidicola); experiment: Mycosphaerella arachidis (Cercospora arachidicola) / liquid culture (Early Leaf Spot); format: cell-based; conditions: 96 h, 200 ppm in the formulation, inhibition of growth determined photometrically 4-5 days after application, read-out: disease control
Method: as §1, with “Mycosphaerella arachidis (Cercospora arachidicola)/Liquid” for “Botryotinia fuckeliana (Botrytis cinerea)/Liquid”, “(Early Leaf Spot)” for “(Gray Mould)”, “(PDB potato dextrose” for “(Vogels”, “4-5” for “3-4”

[6] = test system: Mycosphaerella Raminicola (Septoria tritici); experiment: Mycosphaerella Raminicola (Septoria tritici) / liquid culture (Septoria Blotch); format: cell-based; conditions: 200 ppm in the formulation, inhibition of growth determined photometrically 4 to 5 days after application, read-out: disease control
Method: as §1, with “Mycosphaerella Raminicola (Septoria tritici)/Liquid” for “Botryotinia fuckeliana (Botrytis cinerea)/Liquid”, “(Septoria Blotch)” for “(Gray Mould)”, “(PDB potato dextrose” for “(Vogels”, “4 to 5” for “3-4”

[7] = test system: Phaeosphaeria Nodorum (Septoria nodorum); experiment: Phaeosphaeria nodorum (Septoria nodorum) / wheat / leaf disc preventative (Glume Blotch); format: in vivo; conditions: Parastagonospora nodorum, foliar, 200 ppm in the formulation, compared to untreated, 5-7 days after application, read-out: disease control
Method: Phaeosphaeria Nodorum (Septoria nodorum)/Wheat/Leaf Disc Preventative (Glume Blotch) Wheat leaf segments cv. Kanzler are placed on agar in a multiwell plate (24-well format) and sprayed with the formulated test compound diluted in water. The leaf disks are inoculated with a spore suspension of the fungus 2 days after application. The inoculated test leaf disks are incubated at 20° C. and 75% rh under a light regime of 12 h light/12 h darkness in a climate cabinet and the activity of a compound is assessed as percent disease control compared to untreated when an appropriate level of disease damage appears in untreated check leaf disks (5-7 days after application).

[8] = test system: Puccinia recondita f. Sp. Tritici; experiment: Puccinia recondita f. sp. tritici / wheat / leaf disc preventative (Brown Rust); format: in vivo; conditions: foliar, 168 h, 200 ppm in the formulation, compared to untreated, 7-9 days after application, read-out: disease control

COc1ccnc(C(=O)N[C@@H](C)C(=O)OC(C)C2(c3ccccc3)CC2c2ccccc2)c1O (stereo partly drawn) [I.a.010, 1-(1,2-diphenylcyclo-propyl)ethyl (2S)-2-[(3-hydroxy-4-methoxy-pyridine-2-carbonyl)-amino]propanoate]
≥ 80%: inhibition of growth at 200 ppm [1] | inhibition of growth at 200 ppm [2] | pest or weed control at 200 ppm [3] | inhibition of growth at 200 ppm [4] | inhibition of growth at 200 ppm [5] | inhibition of growth at 200 ppm [6] | pest or weed control at 200 ppm [7] | pest or weed control at 200 ppm [8]

COc1ccnc(C(=O)N[C@@H](C)C(=O)OC(C)C2(c3ccccc3)CCCCC2)c1O (stereo partly drawn) [I.a.015, 1-(1-phenylcyclohexyl)-ethyl (2S)-2-[(3-hydroxy-4-methoxy-pyridine-2-carbonyl)amino]propanoate]
≥ 80%: inhibition of growth at 200 ppm [1] | inhibition of growth at 200 ppm [2] | inhibition of growth at 200 ppm [4] | inhibition of growth at 200 ppm [5] | inhibition of growth at 200 ppm [6] | pest or weed control at 200 ppm [7] | pest or weed control at 200 ppm [8]

COc1ccnc(C(=O)N[C@@H](C)C(=O)OC(C)C(C)(C)c2cc(F)ccc2F)c1O (stereo partly drawn) [I.ah.001, [2-(2,5-difluoro-phenyl)-1,2-dimethyl-propyl] (2S)-2-[(3-hydroxy-4-methoxy-pyridine-2-carbonyl)-amino]propanoate]
≥ 80%: inhibition of growth at 200 ppm [2] | pest or weed control at 200 ppm [3] | inhibition of growth at 200 ppm [4] | inhibition of growth at 200 ppm [5] | inhibition of growth at 200 ppm [6] | pest or weed control at 200 ppm [7] | pest or weed control at 200 ppm [8]

COc1ccnc(C(=O)N[C@@H](C)C(=O)OC(C)C2(c3ccc(Cl)cc3)CCC2)c1O (stereo partly drawn) [I.k.012, 1-[1-(4-chlorophenyl)-cyclobutyl]ethyl (2S)-2-((3-hydroxy-4-methoxy-pyridine-2-carbonyl)-amino]propanoate]
≥ 80%: inhibition of growth at 200 ppm [1] | inhibition of growth at 200 ppm [2] | pest or weed control at 200 ppm [3] | inhibition of growth at 200 ppm [4] | inhibition of growth at 200 ppm [5] | inhibition of growth at 200 ppm [6] | pest or weed control at 200 ppm [7] | pest or weed control at 200 ppm [8]

COc1ccnc(C(=O)N[C@@H](C)C(=O)OC(C)C2(c3ccc(Cl)cc3)CCCCC2)c1O (stereo partly drawn) [I.k.015, 1-[1-(4-chlorophenyl)-cyclohexyl]ethyl (2S)-2-[(3-hydroxy-4-methoxy-pyridine-2-carbonyl)amino]propanoate]
≥ 80%: inhibition of growth at 200 ppm [1] | inhibition of growth at 200 ppm [2] | inhibition of growth at 200 ppm [4] | inhibition of growth at 200 ppm [5] | inhibition of growth at 200 ppm [6] | pest or weed control at 200 ppm [7] | pest or weed control at 200 ppm [8]

COc1ccnc(C(=O)N[C@@H](C)C(=O)OC(C)C2(c3ccc(Cl)cc3)CCCCC2)c1OC(C)=O (stereo partly drawn) [I.k.075, 1-[1-(4-chlorophenyl)-cyclohexyl]ethyl (2S)-2-[(3-acetoxy-4-methoxy-pyridine-2-carbonyl)-amino]propanoate]
≥ 80%: inhibition of growth at 200 ppm [2] | pest or weed control at 200 ppm [3] | inhibition of growth at 200 ppm [5] | inhibition of growth at 200 ppm [6] | pest or weed control at 200 ppm [7] | pest or weed control at 200 ppm [8]

COc1ccnc(C(=O)N[C@@H](C)C(=O)OC(C)C(C)(C)c2ccc(Br)cc2)c1O (stereo partly drawn) [I.m.001, [2-(4-bromophenyl)-1,2-dimethyl-propyl] (2S)-2-[(3-hydroxy-4-methoxy-pyridine-2-carbonyl)amino]propanoate]
≥ 80%: inhibition of growth at 200 ppm [1] | inhibition of growth at 200 ppm [2] | inhibition of growth at 200 ppm [4] | inhibition of growth at 200 ppm [5] | inhibition of growth at 200 ppm [6] | pest or weed control at 200 ppm [7] | pest or weed control at 200 ppm [8]

COc1ccnc(C(=O)N[C@@H](C)C(=O)OC(C)C2(c3cccc4ccccc34)CC2)c1OC(C)=O (stereo partly drawn) [I.v.066, 1-[1-(1-naphthyl)cyclo-propyl]ethyl (2S)-2-[(3-acetoxy-4-methoxy-pyridine-2-carbonyl)-amino]propanoate]
≥ 80%: inhibition of growth at 200 ppm [1] | inhibition of growth at 200 ppm [2] | pest or weed control at 200 ppm [3] | inhibition of growth at 200 ppm [4] | inhibition of growth at 200 ppm [5] | inhibition of growth at 200 ppm [6] | pest or weed control at 200 ppm [7] | pest or weed control at 200 ppm [8]
